In US20230131899A1, “INHIBITORS OF MICROBIALLY INDUCED AMYLOID” (Axial Therapeutics, Inc., priority 2020, published 2023):
Read-outs that look alike come from different tables or passages of the source.

Target: T1, human α-synuclein (Homo sapiens, UniProt P37840)
T1 construct: the full-length gene for untagged human α-synuclein was inserted; made in house; host or cells: E. coli BL21(DE3), plasmid derived from pT7 or pET11a
Assay: Cell-free Thioflavin T assay of α-synuclein aggregation (αSyn ThT Assay)
Format: biochemical
Conditions: αSyn 50 μM
In short: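 Untagged full-length human α-synuclein from E. coli, 50 μM, with 20-40 μM ThT, 1% DMSO, compound at 20-100 μM and a glass bead, 37° C. with shaking. Fluorescence (ex 438/em 495 nm) read hourly to 73 h. Compound-only background subtracted and values normalised to vehicle at 36-72 h or final timepoint, giving % inhibition.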

[1] = class symbol, compounds 100 μM, read-out: αSyn ThT Assay % inhibition, activity range
[2] = mean percent inhibition relative to DMSO control, compounds 100 μM, read-out: αSyn ThT Assay % inhibition
[3] = mean % inhibition of αSyn aggregation relative to DMSO control, compounds at 100 μM, read-out: αSyn ThT Assay % Inhibition
[4] = compounds at 100 μM, class symbol, read-out: αSyn ThT Assay % Inhibition (activity range)

Structure (SMILES): CCCN1CC(C(=O)O)n2c(c(-c3cccc(C(F)(F)F)c3)c(Cc3cccc4ccccc34)c(NC(=O)C(C)C)c2=O)S1(=O)=O (centres unmarked) [Compound 152, 7-isobutyramido-8-(naphthalen-1-ylmethyl)-6-oxo-2-propyl-9-(3-(trifluoromethyl)phenyl)-3,4-dihydro-2H,6H-pyrido[1,2-e][1,2,5]thiadiazine-4-carboxylic acid 1,1-dioxide]
- inhibition at 100 µM [1]: 31 to 60%
- inhibition at 100 µM [2]: 54%

Structure (SMILES): O=C(O)C1CN(Cc2ccccc2CO)c2c(-c3cccc(C(F)(F)F)c3)c(Cc3cccc4ccccc34)c(Cl)c(=O)n21 (centres unmarked) [Compound 181, 6-chloro-1-(2-(hydroxymethyl)benzyl)-7-(naphthalen-1-ylmethyl)-5-oxo-8-(3-(trifluoromethyl)phenyl)-1,2,3,5-tetrahydroimidazo[1,2-a]pyridine-3-carboxylic acid]
- inhibition at 100 µM [1]: 31 to 60%
- inhibition at 100 µM [2]: 31%

Structure (SMILES): O=C(O)C1CN(CC2CCOCC2)c2c(-c3cccc(C(F)(F)F)c3)c(Cc3cccc4ccccc34)c(Cl)c(=O)n21 (centres unmarked) [Compound 182, 6-chloro-7-(naphthalen-1-ylmethyl)-5-oxo-1-((tetrahydro-2H-pyran-4-yl)methyl)-8-(3-(trifluoromethyl)phenyl)-1,2,3,5-tetrahydroimidazo[1,2-a]pyridine-3-carboxylic acid]
- inhibition at 100 µM [1]: 31 to 60%
- inhibition at 100 µM [2]: 33%

Structure (SMILES): O=C(O)C1CN(CCc2ccccc2)c2c(-c3cccc(C(F)(F)F)c3)c(Cc3cccc4ccccc34)c(Cl)c(=O)n21 (centres unmarked) [Compound 178, 6-chloro-7-(naphthalen-1-ylmethyl)-5-oxo-1-phenethyl-8-(3-(trifluoromethyl)phenyl)-1,2,3,5-tetrahydroimidazo[1,2-a]pyridine-3-carboxylic acid]
- inhibition at 100 µM [1]: 31 to 60%
- inhibition at 100 µM [2]: 43%

Structure (SMILES): O=C(O)C1CN(Cc2ccc(CO)cc2)c2c(-c3cccc(C(F)(F)F)c3)c(Cc3cccc4ccccc34)c(Cl)c(=O)n21 (centres unmarked) [Compound 170, 6-chloro-1-(4-(hydroxymethyl)benzyl)-7-(naphthalen-1-ylmethyl)-5-oxo-8-(3-(trifluoromethyl)phenyl)-1,2,3,5-tetrahydroimidazo[1,2-a]pyridine-3-carboxylic acid]
- inhibition at 100 µM [1]: 11 to 30%
- inhibition at 100 µM [2]: 30%

Structure (SMILES): N#Cc1cccc(CN2CC(C(=O)O)n3c2c(-c2cccc(C(F)(F)F)c2)c(Cc2cccc4ccccc24)c(Cl)c3=O)c1 (centres unmarked) [Compound 168, 6-chloro-1-(3-cyanobenzyl)-7-(naphthalen-1-ylmethyl)-5-oxo-8-(3-(trifluoromethyl)phenyl)-1,2,3,5-tetrahydroimidazo[1,2-a]pyridine-3-carboxylic acid]
- inhibition at 100 µM [1]: 31 to 60%
- inhibition at 100 µM [2]: 43%

Structure (SMILES): CN(C)C(=O)C1CN(C)S(=O)(=O)c2c(-c3cccc(C(F)(F)F)c3)c(Cc3cccc4ccccc34)cc(=O)n21 (centres unmarked) [Compound 032, N,N-2-trimethyl-8-(naphthalen-1-ylmethyl)-6-oxo-9-(3-(trifluoromethyl)phenyl)-3,4-dihydro-2H,6H-pyrido[1,2-e][1,2,5]thiadiazine-4-carboxamide 1,1-dioxide]
- inhibition at 100 µM [3]: 8%
- inhibition at 100 µM [4]: -10 to 10%

Structure (SMILES): O=C(O)C1COc2c(-c3cccc(C(F)(F)F)c3)c(Cc3cccc4ccccc34)cc(=O)n21 (centres unmarked) [Compound 064, 7-(naphthalen-1-ylmethyl)-5-oxo-8-(3-(trifluoromethyl)phenyl)-2,3-dihydro-5H-oxazolo[3,2-a]pyridine-3-carboxylic acid]
- inhibition at 100 µM [3]: 37%
- inhibition at 100 µM [4]: 31 to 60%

Structure (SMILES): O=C(O)C1CN(CCCO)c2c(-c3cccc(C(F)(F)F)c3)c(Cc3cccc4ccccc34)c(Cl)c(=O)n21 (centres unmarked) [Compound 197, 6-chloro-1-(3-hydroxypropyl)-7-(naphthalen-1-ylmethyl)-5-oxo-8-(3-(trifluoromethyl)phenyl)-1,2,3,5-tetrahydroimidazo[1,2-a]pyridine-3-carboxylic acid]
- inhibition at 100 µM [1]: 31 to 60%
- inhibition at 100 µM [2]: 39%

Structure (SMILES): O=C(O)C1CSc2c(-c3cccc(C(F)(F)F)c3)c(Cc3cccc4ccccc34)c(CO)c(=O)n21 (centres unmarked) [Compound 057, 6-(hydroxymethyl)-7-(naphthalen-1-ylmethyl)-5-oxo-8-(3-(trifluoromethyl)phenyl)-2,3-dihydro-5H-thiazolo[3,2-a]pyridine-3-carboxylic acid]
- inhibition at 100 µM [3]: 54%
- inhibition at 100 µM [4]: 31 to 60%

Structure (SMILES): CC1(C)Sc2c(-c3cccc(C(F)(F)F)c3)c(Cc3cccc4ccccc34)nc(=O)n2C1C(=O)O (centres unmarked) [Compound 059, 2,2-dimethyl-7-(naphthalen-1-ylmethyl)-5-oxo-8-(3-(trifluoromethyl)phenyl)-2,3-dihydro-5H-thiazolo[3,2-c]pyrimidine-3-carboxylic acid]
- inhibition at 100 µM [3]: 36%
- inhibition at 100 µM [4]: 31 to 60%

Structure (SMILES): Cn1c(=O)c2c(ncn2CCCCN2CC(C(=O)O)n3c(c(-c4cccc(C(F)(F)F)c4)c(Cc4cccc5ccccc45)cc3=O)S2(=O)=O)n(C)c1=O (centres unmarked) [Compound 033, 2-(4-(1,3-dimethyl-2,6-dioxo-1,2,3,6-tetrahydro-7H-purin-7-yl)butyl)-8-(naphthalen-1-ylmethyl)-6-oxo-9-(3-(trifluoromethyl)phenyl)-3,4-dihydro-2H,6H-pyrido[1,2-e][1,2,5]thiadiazine-4-carboxylic acid 1,1-dioxide]
- inhibition at 100 µM [3]: 6%
- inhibition at 100 µM [4]: -10 to 10%

Structure (SMILES): CC(C)CN1CC(C(=O)O)n2c1c(-c1cccc(C(F)(F)F)c1)c(Cc1cccc3ccccc13)c(Cl)c2=O (centres unmarked) [Compound 164, 6-chloro-1-isobutyl-7-(naphthalen-1-ylmethyl)-5-oxo-8-(3-(trifluoromethyl)phenyl)-1,2,3,5-tetrahydroimidazo[1,2-a]pyridine-3-carboxylic acid]
- inhibition at 100 µM [1]: 31 to 60%
- inhibition at 100 µM [2]: 43%

Structure (SMILES): O=C(O)C1CN(Cc2ccccc2)c2c(-c3cccc(C(F)(F)F)c3)c(Cc3cccc4ccccc34)c(Br)c(=O)n21 (centres unmarked) [Compound 003, 1-benzyl-6-bromo-7-(naphthalen-1-ylmethyl)-5-oxo-8-(3-(trifluoromethyl)phenyl)-1,2,3,5-tetrahydroimidazo[1,2-a]pyridine-3-carboxylic acid]
- inhibition at 100 µM [1]: > 60%
- inhibition at 100 µM [2]: 76%

Structure (SMILES): CCCN1CC(C(=O)O)n2c(c(-c3cccc(C(F)(F)F)c3)c(Cc3cccc4ccccc34)c(NC(=O)CC)c2=O)S1(=O)=O (centres unmarked) [Compound 153, 8-(naphthalen-1-ylmethyl)-6-oxo-7-propionamido-2-propyl-9-(3-(trifluoromethyl)phenyl)-3,4-dihydro-2H,6H-pyrido[1,2-e][1,2,5]thiadiazine-4-carboxylic acid 1,1-dioxide]
- inhibition at 100 µM [1]: 31 to 60%
- inhibition at 100 µM [2]: 48%

Structure (SMILES): CCCCN1CC(C(=O)O)n2c1c(-c1cccc(C(F)(F)F)c1)c(Cc1cccc3ccccc13)c(Cl)c2=O (centres unmarked) [Compound 163, 1-butyl-6-chloro-7-(naphthalen-1-ylmethyl)-5-oxo-8-(3-(trifluoromethyl)phenyl)-1,2,3,5-tetrahydroimidazo[1,2-a]pyridine-3-carboxylic acid]
- inhibition at 100 µM [1]: 31 to 60%
- inhibition at 100 µM [2]: 47%

Structure (SMILES): NC(=O)c1c(Cc2cccc3ccccc23)c(-c2cccc(C(F)(F)F)c2)c2n(c1=O)C(C(=O)O)CN(CCCO)S2(=O)=O (centres unmarked) [Compound 184, 7-carbamoyl-2-(3-hydroxypropyl)-8-(naphthalen-1-ylmethyl)-6-oxo-9-(3-(trifluoromethyl)phenyl)-3,4-dihydro-2H,6H-pyrido[1,2-e][1,2,5]thiadiazine-4-carboxylic acid 1,1-dioxide]
- inhibition at 100 µM [1]: > 60%
- inhibition at 100 µM [2]: 75%

Structure (SMILES): O=C(O)c1c(CCc2ccccc2)sc2c(-c3cccc(C(F)(F)F)c3)c(Cc3cccc4ccccc34)cc(=O)n12 [Compound 062, 7-(naphthalen-1-ylmethyl)-5-oxo-2-phenethyl-8-(3-(trifluoromethyl)phenyl)-5H-thiazolo[3,2-a]pyridine-3-carboxylic acid]
- inhibition at 100 µM [3]: 87%
- inhibition at 100 µM [4]: > 60%

Structure (SMILES): CCCN1CC(C(=O)O)n2c1c(-c1cccc(C(F)(F)F)c1)c(Cc1cccc3ccccc13)c(Cl)c2=O (centres unmarked) [Compound 162, 6-chloro-7-(naphthalen-1-ylmethyl)-5-oxo-1-propyl-8-(3-(trifluoromethyl)phenyl)-1,2,3,5-tetrahydroimidazo[1,2-a]pyridine-3-carboxylic acid]
- inhibition at 100 µM [1]: > 60%
- inhibition at 100 µM [2]: 67%

Structure (SMILES): CN1CC(C(=O)O)n2c(c(-c3cccc(C(F)(F)F)c3)c(Cc3cccc4ccccc34)c(C(=O)NC(C)(C)C)c2=O)S1(=O)=O (centres unmarked) [Compound 158, 7-(tert-butylcarbamoyl)-2-methyl-8-(naphthalen-1-ylmethyl)-6-oxo-9-(3-(trifluoromethyl)phenyl)-3,4-dihydro-2H,6H-pyrido[1,2-e][1,2,5]thiadiazine-4-carboxylic acid 1,1-dioxide]
- inhibition at 100 µM [1]: > 60%
- inhibition at 100 µM [2]: 79%

Structure (SMILES): O=C(O)C1CN(Cc2cccc3ccccc23)c2c(-c3cccc(C(F)(F)F)c3)c(Cc3cccc4ccccc34)c(Cl)c(=O)n21 (centres unmarked) [Compound 200, 6-chloro-1,7-bis(naphthalen-1-ylmethyl)-5-oxo-8-(3-(trifluoromethyl)phenyl)-1,2,3,5-tetrahydroimidazo[1,2-a]pyridine-3-carboxylic acid]
- inhibition at 100 µM [1]: > 60%
- inhibition at 100 µM [2]: 84%

Structure (SMILES): O=C(O)C1CN(Cc2ccccc2)c2c(-c3cccc(C(F)(F)F)c3)c(Cc3cccc4ccccc34)c(F)c(=O)n21 (centres unmarked) [Compound 194, 1-benzyl-6-fluoro-7-(naphthalen-1-ylmethyl)-5-oxo-8-(3-(trifluoromethyl)phenyl)-1,2,3,5-tetrahydroimidazo[1,2-a]pyridine-3-carboxylic acid]
- inhibition at 100 µM [1]: 31 to 60%
- inhibition at 100 µM [2]: 57%
